# In patent publication US5989846A, “Assays to identify inducers of plant defense resistance” (Rutgers, The State University of New Jersey, priority 1995, dated 1999):
# Experiments:
# [1] = system: resistance or PR gene expression; design: key: ++: indicates a high level of biological activity; +: indicates a lower level of biological activity; ±: indicates low, but detectable biological activity in some assays; -: indicates no biological activity; conditions: Table 3; values reported in literature; cited from earlier work
# [2] = system: salicylic acid binding protein; test: Competitive [14C] salicylic acid binding assay (spin-column); design: species or system tobacco; conditions: for Inhibition (%) 2× / Inhibition (%) 10×: [14C] salicylic acid 20 μM; for Inhibition (%) 2×: 40 μM (2×) unlabeled competitor; for Inhibition (%) 10×: 200 μM (10×) unlabeled competitor
# Method: The 180 kDa native binding protein isolated was tested for binding affinity and specificity. A competitive assay was established using salicylic acid binding protein fractionated from plants as previously described.
# A key element during the characterization and the purification process is a simple, inexpensive, sensitive and reliable method for determining the salicylic acid binding activity. For this purpose, spin-column exclusion chromatography was used to separate the bound [^14 C] salicylic acid (excluded) from the bulk free salicylic acid (included). Specifically, a 1.5 ml Eppendorf tube was punctured at the tip with a 20-gauge needle and a small amount of glass wool was added to cover the small hole. The tube was then filled with Bio-Gel P-6DG desalting gel (exclusion limit 6 KDa; purchased from Bio-Rad, Melville, N.Y.) which have been swollen in water. An alternative gel is Sephadex G-25 fine (from Pharmacia, Piscataway, N.J.). Excess liquid in the gel was removed and centrifuged for 5 minutes at full speed in a Dynamic centrifuge (Becton Dickinson). The process was then repeated several times until the gel filled the tube. After incubation of an aliquot of the extract or column fractions for 2 hr at 4° C. with 5 μM-20 μM [^14 C salicylic acid] (specifically radioactivity 55 Ci/mol; purchased from New England Nuclear), 150 μl of proteins binding sample was loaded onto the tube column, which was then rapidly centrifuged for 2 minutes at full speed and the solution of proteins and bound [^14 C-salicylic acid] that was excluded from the gel was collected into another tube that had been placed under the tube column during the centrifugation. One hundred microliters of this solution was then used to determine the amount of bound salicylic acid. […] For example, to determine the inhibitory effect of various salicylic acid analogues on salicylic acid binding activity, these individual analogues were included in the binding mixture containing both the protein and [^14 C] salicylic acid during the 2 hr incubation, and resulting binding activity was determined in comparison to the activity in the absence of these analogues. Likewise, to determine the effect of pH and antioxidants on the binding activity the protein sample was either dialyzed against a large volume of buffers with different pH or antioxidants were added to the protein sample to various concentrations and the resulting binding activities were then determined with the spin-column method in comparison with the activity determined in the absence of these treatments.
# [3] = biological target: T1, catalase activity of SABP (Nicotiana tabacum, UniProt P49319); test: Catalase activity of highly purified SABP (luminol method); assay type: biochemical, tobacco; conditions: 0.05 h; 1 mM SA or analogue, 1 mM H2O2, 500 ng highly purified SABP
# T1 sequence (P49319 1-492): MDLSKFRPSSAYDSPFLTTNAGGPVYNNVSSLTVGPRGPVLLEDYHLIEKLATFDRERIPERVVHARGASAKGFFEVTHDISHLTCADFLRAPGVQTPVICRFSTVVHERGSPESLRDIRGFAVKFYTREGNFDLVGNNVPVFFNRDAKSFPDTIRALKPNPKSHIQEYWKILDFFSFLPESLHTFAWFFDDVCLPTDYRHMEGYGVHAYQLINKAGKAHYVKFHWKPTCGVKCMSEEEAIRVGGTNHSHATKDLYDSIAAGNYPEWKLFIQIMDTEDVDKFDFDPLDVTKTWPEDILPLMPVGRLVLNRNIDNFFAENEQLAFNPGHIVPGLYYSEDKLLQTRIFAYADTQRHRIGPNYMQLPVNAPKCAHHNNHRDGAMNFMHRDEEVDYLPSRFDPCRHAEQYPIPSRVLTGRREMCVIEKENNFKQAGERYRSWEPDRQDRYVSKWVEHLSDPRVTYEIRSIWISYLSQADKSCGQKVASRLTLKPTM
# Method: Aliquots (50 μl) were removed from the assay mixture at 30 second intervals to assay for amount of H2 O2 remaining using the luminol method as has been described by Warm and Laties, Phytochem. […] The tube was placed in the measuring chamber and assay was initiated with automatic injection into the mixture of 100 μl of 0.5 mM K3 Fe(CN)6 in 0.2N NH4 OH, pH 9.5. Measurements were integrated over 5 second periods. H2 O2 was calculated from the standard curve constructed with known amounts of H2 O2. Rate constants of SABP catalase activity in the presence or absence of SA or its analogues were then calculated based on a first-order mechanism.
# SABP = system: SABP; design: concentration or dose not given beside the values; conditions: Table 6; previously published data (Chen et al. 1993); cited from earlier work
# ascorbate peroxidase = test: Ascorbate peroxidase activity in tobacco leaf extracts; assay type: biochemical, Nicotiana tabacum cv. Xanthi nc; conditions: 200 μM compound, corrected for quenching of auto oxidation
# Method: […] Two grams of leaves from 6-8 week old tobacco plants (Nicotiana tabacum cv. Xanthi nc) grown at 22° C. in a 14 hr light cycle were homogenized under liquid nitrogen using a pestle and mortar.
# To obtain ascorbate peroxidase-containing extracts, the soluble proteins were extracted by grinding the powder in 10 ml of 100 mM potassium phosphate, pH 7, containing […] ascorbate and 1% (weight/volume) polyvinylpyrrolidone, with a small amount of quartz sand. The homogenate was centrifuged at 14,000 g for 5 min. […] The pellet resulting from centrifugation (14,000 g, 15 min.) was resuspended in extraction buffer (100 mM potassium phosphate, pH7, containing 0.25 mM ascorbate and 1% (weight/volume) polyvinylpyrrolidone) and desalted on a PD-10 column (Pharmacia) equilibrated with 50 mM potassium phosphate, pH 7, containing 100 μM ascorbate. The extract was used immediately. […] The amount of protein per assay was 30-50 μg. Oxidation of ascorbate was followed by the decrease in the absorbance at 290 nm.
# The values illustrated in FIG. 17 are the mean values for three replicated assays.
# PR1 genes = test: PR-1 protein/gene expression in tobacco leaves (immunoblot); assay type: in vivo; conditions: for Induction of PR1 gene expression: tobacco leaves
# Method: The level of PR1 protein in tobacco leaves was analyzed by immunoblot analysis to establish biological activity. Three leaf discs (1 cm in diameter) were homogenized in 200 microliters of buffer containing 50 mM Tris (pH 8.0), 1 mM EDTA, 12 mM beta-mercaptoethanol and 10 mg/ml phenylmethylsulfonyl fluoride. The homogenate was centrifuged at full speed for 10 minutes in an Eppendorf microcentrifuge. The supernatant was fractionated with 15% polyacrylamide gel under denatured conditions. Protein blotting was done with a monoclonal antibody specific to PR1 protein and protein-antibody complexes were detected with an ECL kit from Amersham.
# PR gene expression is both induced by SA and associated with the development of SAR. Therefore, it was of interest to test whether SA's mechanism of action for the induction of PR genes was via its inhibition of catalases which leads to enhanced H2 O2 levels. To address this question, H2 O2 abundance was artificially raised in tobacco leaves by treating with H2 O2 or compounds which either inhibit the catalase activity, like SA itself, or promote generation of H2 O2 in vivo. […]
# catalase = test: In vivo catalase activity in tobacco suspension cells (oxygen electrode); assay type: cell-based; design: Inhibition (%) Catalase activity: concentration or dose not given beside the values; conditions: for Inhibition (%) Catalase activity: Table 8
# Method: This was determined by adding increasing concentrations of SA or INA to tobacco suspension cells (derived from cultivar Xanthi nc), as described below. The tobacco suspension cell culture was grown in the dark in MS medium at approximately 22° C. with agitation (160 rpm). Cells were maintained by diluting 10-fold every 5 days. For experimentation, 5 ml of suspension cells obtained 3 days after dilution was transferred to a 25 ml Erlenmeyer flask and agitated (100 rpm) at room temperature in the absence or presence of SA or INA which had been adjusted to pH 5.8. After 1 hr, 1 ml of the treated cell suspension was transferred to 7 ml of fresh MS medium containing SA or INA in a 10 ml beaker (density was approximately 6 mg cells per ml). Cells were maintained in suspension with a magnetic stir bar. In vivo catalase activity was determined by measuring, with an oxygen electrode, the rate of H2 O2 -dependent O2 production immediately after addition of H2 O2 to 10 mM final concentration.
# SABP/catalase = test: Competition with 14C-labeled SA for SABP/catalase in crude leaf extracts; assay type: binding, tobacco; conditions: for Inhibition (%) [14C]SA binding: Table 8, 14C-labeled SA 20 μM, 1 mM unlabeled compound, crude leaf extracts
Inhibition (%) 2× [2],Inhibition (%) 10× [2],Inhibition (%) [14C]SA binding (SABP/catalase),Compound,Biological activity [1],Inhibition (%) Catalase activity (catalase),further results
1%,2%,,"O=C(O)c1ccc(O)c(O)c1O [2,3,4-Trihydroxybenzoic acid]",-,,
-1%,3%,,"O=C(O)c1c(O)cc(O)cc1O [2,4,6-Trihydroxybenzoic acid]",-,,
0%,2%,,O=C(O)c1ccccc1Cl [2-Chlorobenzoic acid],-,,
-3%,2%,,CCOc1ccccc1C(=O)O [2-Ethoxybenzoic acid],-,,
1%,-1%,,"O=C(O)c1cc(O)c(O)cc1O [3,4,6-Trihydroxybenzoic acid]",-,,
,,,"O=C(O)c1ccc(O)c(O)c1 [3,4-Dihydroxybenzoic acid]",,,inhibition at 1000 µM [3]: 5.1%; Inhibition (%) [14C]SA binding (SABP): 0%
1%,5%,,Nc1cccc(C(=O)O)c1O [3-Aminosalicylic acid],-,,
0%,-1%,,Nc1ccc(C(=O)O)c(O)c1 [4-Aminosalicylic acid],-,,% Inhibition of ascorbate peroxidase (ascorbate peroxidase): 9 ± 5%
1%,-2%,,Nc1ccc(O)c(C(=O)O)c1 [5-Aminosalicylic acid],-,,
,,,"OO [H2 O2, hydrogen peroxide]",,,Induction of PR1 gene expression (PR1 genes): induced the expression of PR-1 genes
,,,O=C(O)C=Cc1ccccc1O [O-coumaric acid],,,Induction of PR1 gene expression (PR1 genes): did not induce PR1 gene expression; Competition for binding to salicylic acid binding protein ([2]; competitive binding assay): unable to compete for binding
,,69%,O=C(O)c1cc(Br)nc(Br)c1 [STR2],,100%,
,,63%,O=C(O)c1cc(F)nc(F)c1 [STR3],,48%,
,,25%,O=Cc1cc(Cl)nc(Cl)c1 [STR4],,79%,
,,19%,O=C(O)c1cc(O)nc(O)c1 [STR5],,25%,
,,11%,CC(C)c1cc(C(=O)O)cc(O)n1 [STR6],,15%,
,,7%,CCCc1cc(C(=O)O)cc(O)n1 [STR7],,4%,
,,1%,O=C(O)c1cccc(O)c1 [STR12],,0%,
,,,O=Cc1cc(Cl)nc(Cl)c1 [analogue #7],,,Inhibition of catalase activity in vivo (in words) (catalase): active; Induction of PR-1 protein synthesis / PR-1 gene induction (in words) (PR1 genes; N.t. cv. Xanthi nc): active; Inhibition of binding of 14C-labeled SA to SABP/catalase in vitro (in words) (SABP/catalase; in vitro): much less active
,,,O=C(O)CO [glycolate],,,Induction of PR1 gene expression (PR1 genes): induced
,,,C[n+]1ccc(-c2cc[n+](C)cc2)cc1 [paraquat],,,Induction of PR1 gene expression (PR1 genes): induced

Compound,Inhibition (%) 2× [2],Inhibition (%) 10× [2],Inhibition (%) [14C]SA binding (SABP/catalase),Biological activity [1],Inhibition (%) Catalase activity (catalase),further results
O=C(O)c1ccccc1 [Benzoic acid],14%,25%,,+,,"Induction of PR1 gene expression (PR1 genes): able to induce the expression of PR1 genes; Concentration needed relative to salicylic acid for similar levels of PR1 gene expression (PR1 genes; tobacco, FIG. 6A): approximately ten-fold; Inhibition of [14C] salicylic acid binding relative to unlabeled salicylic acid ([2]; as well as unlabeled salicylic acid): about 20%"
Oc1ccccc1O [Catechol],0%,1%,,-,,
O=C(O)c1cc(Cl)nc(Cl)c1 [STR1],,,65%,,98%,
O=C(O)c1ccccc1O [STR8],,,90%,,84%,
O=C(O)c1ccc(Cl)cc1O [STR9],,,88%,,95%,
O=C(O)c1cc(Cl)ccc1O [STR10],,,87%,,100%,
O=C(O)c1cc(Cl)cc(Cl)c1O [STR11],,,85%,,100%,
O=C(O)c1ccc(O)cc1 [STR13],,,0%,,0%,
O=C(O)c1ccccc1S [Thiosalicylic acid],-5%,1%,,-,,% Inhibition of ascorbate peroxidase (ascorbate peroxidase): 0 ± 2%
